Experiment [1] concerns blood-platelets. The note with it: literature, fragments of cow's CGP; cited from earlier work.
Experiment [2] concerns blood-platelets. The note with it: literature, fragments of cow's CGP; same concentrations as the undecapeptide; cited from earlier work.
In experiment [3] the test system is human blood-platelets. Kind of experiment: aggregation of human blood-platelets caused by ADP. In kind it is cell-based. More on the design: key to Aggregation with ADP, concentration which induces 50% inhibition: --: No inhibition. From the text:
(§1) More precisely, its activity upon the blood-platelet functions has been studied in vitro in relation to the inhibition of the aggregation of blood-platelets caused by ADP ("aggregation with ADP"), in relation to the inhibition of the attachment of fibrinogen to the blood-platelets caused by ADP ("attachment of fibrinogen with ADP"), in relation to the inhibition of the aggregation of blood-platelets caused by thrombin ("aggregation with thrombin") and in relation to the inhibition of the reaction caused by thrombin ("secretion reaction with thrombin") that is to say the release of one of the constituents of the dense granule (serotonin), evidence of blood-platelet activation.
(§2) These three products (κ-casein, κ-paracasein and CGP) have been tested upon the aggregation of human blood-platelets by ADP and by thrombin, upon the fixing of fibrinogen in the presence of ADP, and on the secretion reaction.

Experiment [4] deals with human blood-platelets. Kind of experiment: attachment of fibrinogen to the blood-platelets caused by ADP. Type of experiment: cell-based. The conditions noted are these: CGP at 250 μM.
From the text: as §1, §2

Experiment [5] concerns human blood-platelets. Kind of experiment: aggregation of human blood-platelets caused by thrombin. Type of experiment: cell-based.
From the text: as §1, §2

Experiment [6] concerns human blood-platelets. Put plainly: secretion reaction with thrombin (release of serotonin from the dense granule). Type of experiment: cell-based.
From the text: as §1, §2

Where “and” joins values, the source holds several entries; their conditions need not be identical. Equal entries are not always repeated. Entries after “also recorded” stand apart in the source; their conditions may differ.

The source of these data is patent publication US5063203A, “Method of preventing or treating thrombosis using kappa-caseinoglycopeptide as active ingredient” (Centre National de la Recherche Scientifique (CNRS), priority 1989, dated 1991).

With “heptapeptide containing the residues 106→112: fragment 106→112 of cow's κ-caseinoglycopeptide, by trypsin digestion of CGP or by synthesis (MAIPPKK; UniProt P02668 127-133, looked up, fragment)”, the “inhibition of blood-platelet aggregation in vitro” value in the experiment with blood-platelets [1] was “non-inhibiting”. Also, the “inhibition of the attachment of fibrinogen to the blood-platelets in vitro” value in the experiment with blood-platelets [2] is on record as “none of these peptides inhibit”.
On to “tetrapeptide containing the residues 113→116: fragment 113→116 of cow's κ-caseinoglycopeptide, by trypsin digestion of CGP or by synthesis (NQDK; UniProt P02668 134-137, looked up, fragment)”, for which the “inhibition of blood-platelet aggregation in vitro” value with blood-platelets [1] was “inhibits only very slightly”. In addition, the “inhibition of the attachment of fibrinogen to the blood-platelets in vitro” value in the experiment on blood-platelets [2] is listed as “none of these peptides inhibit”.
Take “κ-casein: cow's milk protein that under chymosin yields κ-paracasein and CGP; comparator”: the “CI50, aggregation with ADP” value in the experiment with human blood-platelets [3] is “inactive; also recorded: inhibits neither”. Further, in the experiment with human blood-platelets [3] (Table II), the “Aggregation with ADP, concentration which induces 50% inhibition” value is on record as “--”. Further, the “inhibition of fibrinogen attachment with ADP” value in the experiment with human blood-platelets [4] was “inhibits neither”. For the same substance, the IC50 in the experiment with human blood-platelets [5] (Table II, read-out: Aggregation with thrombin, concentration which induces 50% inhibition) is 10 µM; in the experiment with human blood-platelets [5] (read-out: CI50, aggregation with thrombin) it was 10 µM and ~10 µM; with human blood-platelets [6] (Table II, read-out: Secretion reaction with thrombin, concentration which induces 50% inhibition), 10 µM; in the experiment with human blood-platelets [6] (read-out: CI50, secretion reaction with thrombin), 10 µM and ~10 µM.
